In US20250213550A1, “COMPOUNDS AND METHODS FOR TREATING INFLAMMATORY BOWEL DISEASE” (Gilead Sciences, Inc., priority 2023, published 2025):

Tested on: OATP/P-gp
Experiment: Drug-drug interaction: mixed OATP/P-gp inhibitor CsA on PK of Compound A
Assay type: in vivo, human
Conditions: co-administration of Compound 1 600 mg with CsA 600 mg, fasted
Protocol: A Phase 1, open-label, single-center, multiple-cohort study was conducted to evaluate the effect of a mixed OATP/P-gp inhibitor (cyclosporine A; CsA) or food on the PK of Compound 1, the effect of Compound 1 on the PK of midazolam (MDZ), the effect of Compound 1 on the PK of OATP/CYP3A/BCRP substrates using atorvastatin (ATV), pravastatin (PRA), and rosuvastatin (ROS), and the effect of Compound 1 on the PK of a representative combined oral contraceptive (drospirenone/ethinyl estradiol; DRSP/EE), in healthy participants. 70 participants ages 18 to 55 years (inclusive) and having BMI of ≥18.0 kg/m^2 and ≤30.0 kg/m^2 were enrolled. For Cohorts 1-3, there were an approximately even distribution of healthy participants assigned male at birth and nonpregnant, nonlactating participants assigned female at birth. Cohort 4 included only healthy, nonpregnant, nonlactating participants assigned female at birth.
Treatment C: Single dose of Compound 1 600 mg, administered in the AM, under fasted conditions with a single dose of CsA 600 mg […]
Concentrations of Compound 1 and its active metabolites Compound A and Compound B, MDZ and its metabolite 1-OH-MDZ, ATV and its metabolite 2-OH-ATV, PRA, ROS, DRSP, and EE in plasma PK samples were determined by validated high performance liquid chromatography tandem mass spectrometry (LC-MS/MS) bioanalytical methods.

For `Cn1ccc2c([C@H](Nc3cc(Cl)c4ncc(C#N)c(NCC(C)(C)C)c4c3)c3cn(C45CC(C4)C5)nn3)cccc2c1=O` [Compound A], the “increase of Compound A AUCinf” value was 122% and the “increase of Compound A Cmax” value was 27%.
